Values joined by “and” are separate entries in the source; they are usually repeats but may differ in a detail not shown here. Identical values can stand only once. Numbered stars: 1 amine (or outer) side, 2 acyl side, 3 side chain; on linkers, the order of the positions; unused ones are H or OH. Bridge positions count the residues as written; N and C are the ends. Square brackets hold non-standard residues; d marks the D form. Peptide text beside a SMILES is read from it. I, II: the chains in the order shown. Trp(2-yl) = O=C([C@H](Cc1c([*:3])[nH]c2ccccc12)N[*:1])[*:2]; X1 = O=C1CC([*:1])C(=O)N1CC1CCC(C(=O)[*:2])CC1; Leu(4R-OH,5-OH) = C[C@](O)(CO)C[C@H](N)C(=O)O; cisHyp = O=C(O)[C@@H]1C[C@H](O)CN1
Experiments:
HeLa cells = assay: cytotoxicity, cell viability by Alamar Blue; assay type: cell-based, human; conditions: Alamar Blue fluorescence after 72 h
Experimental: Validated HeLa human […] cancer cells and HT1080 human epithelial fibrosarcoma cells were obtained from ATCC and were used at a low passage number without modification. All cells were maintained in T75 flasks in an incubator at 37 °C, 5% CO2 in complete media: DMEM containing 10% (%v/v) FBS, glucose, sodium pyruvate, L-glutamine, nonessential amino acids, and antibiotics. Serum-free media (SFM) was prepared in the same fashion as complete media but lacked FBS. Cells were maintained daily with two DPBS washes and replacement of complete media. When ≥90% confluent, cells were passaged using trypsin and seeded into another T75 flask and/or 96-well plates.
(§1) Figure 3 Control experiments. (A) Example in vitro actin depolymerization assay. Depolymerization of pyrene-labeled actin from Cytoskeleton, Inc. was initiated at time zero in the presence of 0–50 μM TP2-S-Ph conjugate. Pyrene excimer fluorescence was excited at 390 nm and monitored at 460 nm over 1 h. (B) Initial depolymerization rates from experiments such as the one shown in Panel A were measured by linear regression and averaged. We show depolymerization rates versus concentration for phalloidin and for the D-TP2-S-Ph conjugate. EC50 values are ∼3 μM for phalloidin and ∼6 μM for D-TP2-S-Ph. (C) Cytotoxicity and hemolysis caused by TP2, phalloidin, and the TP2-S-Ph chimera. Left axis: HeLa cells were incubated with the indicated concentration of compound for 4 h, and cell viability was measured by Alamar Blue fluorescence after 72 h. Right axis: washed human red blood cells were incubated for 1 h, and hemoglobin release was measured.
(§2) To further test for indirect cytotoxicity, we incubated HeLa cells with TP2-S-Ph, TP2 alone, and free phalloidin for 72 h, Figure 3C, and measured cell viability using Alamar Blue.

pyrene-labeled actin = biological target: T1, pyrene-labeled actin (Oryctolagus cuniculus, UniProt P68135); assay: in vitro actin depolymerization assay (pyrene excimer fluorescence, Cytoskeleton kit); assay type: biochemical; conditions: polymerized pyrene-actin, 0–50 μM, rates by linear regression, normalized to buffer-only control, averaged; read-out: EC50 for inhibition of actin depolymerization (initial depolymerization rate vs concentration)
T1 construct: purchased Cytoskeleton, Inc
Experimental: An actin polymerization biochemistry kit (Cytoskeleton, Inc.) was used to assay the bioactivity of the phalloidin conjugates. All experiments were performed in a 96-well format and read on a fluorescent plate reader (Biotek Synergy II). Actin-pyrene monomers formed filamentous actin by using the supplied polymerization buffer, which caused pyrene excimer fluorescence (excitation 365 nm and emission 407 nm). Serial dilutions of phalloidin or TP2-SMCC-Ph were added to the filamentous actin-pyrene as well as a no peptide control. A supplied depolymerization buffer was then added to samples, and loss of fluorescence was monitored on the plate reader as a function of time. […] Calculated rates are normalized to the buffer-only controls.
The 7-position of natural phalloidin is a 4,5-dihydroxy leucine residue. […] Pyrene excimer fluorescence is measured such that depolymerization will drive a decrease in intensity. Polymerized actin, with added phalloidin or TP2-SMCC-Ph, is triggered to depolymerize at time zero, and the rate of excimer decrease is measured.
Figure 3 Control experiments. […] Pyrene excimer fluorescence was excited at 390 nm and monitored at 460 nm over 1 h. (B) Initial depolymerization rates from experiments such as the one shown in Panel A were measured by linear regression and averaged. […] Right axis: washed human red blood cells were incubated for 1 h, and hemoglobin release was measured.

HT1080 cells = assay: wound-healing scratch (cell migration) assay; assay type: cell-based, human; set-up: cell migration: dose or concentration left out as unconfirmed
Experimental: A total of 30,000 HT1080 cells were seeded into each well of a 96-well plate in complete media and incubated for 24 h. Cells were washed with DPBS and incubated in serum-free media (SFM) for the next 48 h. Treatment with TP1/2/3-S-Ph, cytochalasin D, or media control, containing DMSO equal to treatment (% v/v), was done for four h at 37 °C. Cells were washed three times with DPBS and then scratched with 10 μL pipet tips on a multichannel pipettor. Evaluation of area closure was performed by phase contrast microscopic imaging of each well at 4× magnification, hourly, for 24 h with the Biotek Cytation 5 cell imaging reader and the BioSpa 8 automated incubator. Only the linear portion of the time course, up to 8 h, was used for analysis. For each condition studied, the scratch assay was performed in at least 6 biologically independent experiments, and each experiment consisted of 2–3 technical replicates.
ImageJ was used to trace the perimeter of each scratch. The gap area (GA) of each scratch was generated with ImageJ via batch processing with a lower threshold of 0 and an upper threshold of 60. The gap area for treatment groups was averaged and relativized as follows: [drawing 1]
Mean relative GA was plotted over time, and the absolute value of the slope from 1 to 8 h for each treatment was determined. Lastly, slopes were normalized against SFM controls.
We performed 4 h incubation in the presence of peptide chimeras and then washed the cells with PBS three times prior to conducting the scratch-closing measurements. This approach enabled us to assay only for rapid and nonreversible delivery of phalloidin cargo to the cytosol of cells by the peptides. The control compound cytochalasin D needed to be maintained at the noted concentration throughout the entire incubation time because, unlike the peptides, it is readily washed out of cells and has no effect if incubated for 4 h and washed away.
Figure 4 Example scratch assay. For this assay, a total of 30,000 HT1080 cells were seeded into each well of a 96-well cell culture plate in complete media and incubated for 24 h. Cells were washed with DPBS and incubated in serum-free media (SFM) for the next 48 h. Treatment with serum-free media, cytochalasin D, or peptide was done for 4 h at 37 °C. Cells were washed three times with DPBS and then scratched with 10 μL pipet tips on a multichannel pipettor. Cytochalasin D was replaced at the intended concentration, but the peptide was not. Evaluation of wound area was performed by phase contrast microscopic imaging of each well at 4× magnification with a BioTek Cytation 5 cell imaging reader and the BioSpa 8 automated incubator. Here, we show example images from a typical scratch assay taken 0, 1, 3, and 6 h after scratching a channel in the middle of the surface. Red lines show the edge of the wound identified by ImageJ and were used to calculate the total wound area from each image.
Migration rates were normalized to that of the NT/SFM group, which was always the fastest closing group. Each experiment was repeated in at least 6 biologically independent experiments, and each biologically independent experiment was repeated in 2–3 technical replicates.

human red blood cells = assay: hemolysis, hemoglobin release; assay type: cell-based; conditions: washed human red blood cells, incubated 1 h
Experimental: as §1, §2

[1] = 100 nM continuous, HT1080, serum-free media

Structure (SMILES) | cytotoxic effects on HeLa cells (cell viability) (HeLa cells; up to 1 mM) | EC50 (pyrene-labeled actin) | size of effect on cell migration compared with cytochalasin D control (HT1080 cells; 25 μM, applied for 4 h then washed off, control 100 nM continuous CD) | effect on migration (mean wound closure rate) compared to no treatment, one-way ANOVA (HT1080 cells; at 25, 12.5, 6.3, and 3.1 μM, 4 h incubation then washed, slope 1–8 h, at least 6 independent experiments) | hemolysis of red blood cells (human red blood cells) | toxicity to HeLa cells (cell viability) (HeLa cells; 0–25 μM concentration range) | toxicity to HeLa cells (cell viability) (HeLa cells; at 50 μM) | cell migration over the first 6 h (HT1080 cells; [1]) | inhibition of cell movement (HT1080 cells; [1]) | effect on cell migration after wash-out (HT1080 cells; incubated for 4 h and washed away) | cell migration (HT1080 cells; treatment, continuous, HT1080)
C[C@@H]1NC(=O)[C@H](C[C@@](C)(O)CO)NC(=O)[C@@H]2Cc3c([nH]c4ccccc34)SC[C@H](NC(=O)[C@@H]([C@H](C)O)NC1=O)C(=O)N1C[C@@H](O)C[C@H]1C(=O)N[C@@H](C)C(=O)N2 [phalloidin] (cyclo(A[dT]C[cisHyp]A[Trp(2-yl)][Leu(4R-OH,5-OH)]); thioether 3-6 (inferred); ring closure inferred) | no cytotoxic effects | < 5 µM and ~3 µM | – | – | – | – | – | – | – | – | –
CC[C@@H](C)[C@@H](NC(=O)[C@@H](CC(C)C)NC(=O)[C@H]1CCCN1)C(=O)N[C@H](Cc1ccc(O)cc1)C(=O)N[C@H](CC(C)C)C(=O)N[C@H](CCCNC(=N)N)C(=O)N[C@H](CC(C)C)C(=O)N[C@H](CC(C)C)C(=O)N[C@H](CCCNC(=N)N)C(=O)NCC(=O)N[C@H](CCC(N)=O)C(=O)N[C@H](Cc1c[nH]c2ccccc12)C(=O)N[C@H](CSC1CC(=O)N(CC2CCC(C(=O)NCCCC[C@@H]3NC(=O)[C@@H]4Cc5c([nH]c6ccccc56)SC[C@H](NC(=O)[C@@H]([C@H](C)O)NC(=O)[C@H](C)NC3=O)C(=O)N3C[C@@H](O)C[C@H]3C(=O)N[C@@H](C)C(=O)N4)CC2)C1=O)C(N)=O (stereo partly drawn) [TP2-S-Ph] (I: H-[dP][dL][dI][dY][dL][dR][dL][dL][dR]G[dQ][dW][dC]-NH2 / II: cyclo([cisHyp]A[Trp(2-yl)]KA[dT]C); linker I:13-II:4 via X1; thioether II:3-II:7) | – | < 5 µM and ~6 µM | at least as large as the CD control | significant effects | no hemolytic activity | Neither the conjugated TP2 nor TP2 alone showed any toxicity | the conjugate did not | – | – | – | –
C=C1[C@@H](C)[C@H]2[C@H](Cc3ccccc3)NC(=O)[C@]23[C@H](OC(C)=O)/C=C/[C@@](C)(O)C(=O)[C@@H](C)C/C=C/[C@H]3[C@@H]1O [cytochalasin D] | – | – | – | – | – | – | – | little to no migration | inhibited cell movement completely | no effect | some migration

Source: publication PMC10882622, “Cytosolic Delivery of Bioactive Cyclic Peptide Cargo by Spontaneous Membrane Translocating Peptides” (ACS Omega, 2024)
